Consider one compound from US11203598B2, “Compounds for repressing cancer cell growth” (Institute For Cancer Research, priority 2018, dated 2021).

In general, pIC50 refers to the IC50 on a negative log10 scale, so that one unit is a factor of ten. Lower therefore signals a large IC50.

Assay [1] concerns WI38 normal lung fibroblasts. Briefly: CellTiter-Glo luminescent cell viability assay. The assay is classed as cell-based, human. To be noted: 72 hours. As to the method: Cells were seeded in 96-well plates at a density of 5×10^3 cells per well. 20 μL of CellTiter-Glo® Reagent was added directly to the wells, following the manufacturer's protocol, and bioluminescence signal was determined using an IVIS imaging system.
Cell lines at a concentration of 4×10^3 cells/well were seeded out on an opaque 96-well plate and treated with CB002 and Analog 11 in ranging doses starting from 200 μmol/L with DMSO controls. At 72 hours after treatment, cells were mixed with 30 μL Cell Titer-Glo reagent and after ten minutes of room temperature incubation were imaged using IVIS imaging system (Xenogen).
To begin establishing the potential of CB002 as a candidate therapeutic agent, its therapeutic index was determined by treating cancer (DLD-1, SW480, and RXF393) and normal (WI38 and MRC5) cell lines with concentrations of CB002 ranging from 0-500 μM for a period of 72 hours and assessing cell viability by the CellTiter-Glo® luminescence assay (see, FIG. 2). CB002 has a significant therapeutic index among the cells tested.
Background: Cellular ATP, detected with luciferase, serves as a proxy for viable cell number.

Assay [2] deals with T1, R175H mutant p53 in HCT116 R175H p53 cells (Homo sapiens, UniProt P04637, R175H).
T1 construct: V5 (only from the vector name pLenti6/V5); host or cells: HCT116 p53-/- cells, lentivirus infection, blasticidin-selected pooled clones
Description: cycloheximide chase assay. It counts as cell-based. To be noted: 100 μM, 24 hours, then cycloheximide. As for the experimental part:
As mutant p53 can acquire a gain-of-function activity, targeting mutant p53 for degradation has been explored as a therapeutic strategy. To investigate the capability of CB002 to impact on mutant p53 protein expression, Western blot analysis was used. […] To confirm these findings, a cycloheximide chase assay was performed. Cells were treated with vehicle control or CB002 for a period of 24 hours. Subsequently, 100 μg/mL cycloheximide was added to the wells and protein lysates were collected at different time points between 0-10 hours. […] Referring to FIG. 6, experiments with SW480 cells (Panels A and B) and analysis of DLD-1 colorectal cancer cells (Panel C) are shown. Cells were treated for a 24 hour period with DMSO, CB002 or positive control followed by 100 μg/mL of cycloheximide addition, and protein stability was evaluated in a time course ranging from 0-10 hours. Histone deacetylase inhibitor, SAHA and Hsp90 inhibitor Geldanamycin (1 μM GA) were used as positive controls.
Referring to FIG. 7, CB002 reduced the protein expression of the exogenous R175H mutant in HCT116 p53-null cells and not the HCT116 wild-type p53 cells (Panel A). HCT116 R175H p53 cells were treated for 24 hours with DMSO or CB002 followed by 100 μg/mL cycloheximide addition. Protein stability was evaluated from 0-10 hours (Panel B). […]

The test system of assay [3] is p53 reporter (PG13-luc) in DLD-1 cells. Description: luciferase-based p53-reporter activity assay. It counts as cell-based, human. As to conditions: 3 and 24 hours. As to the method:
(§1) High-throughput screening was performed using a non-invasive bioluminescence imaging in human colorectal cancer cell lines that stably express a p53-regulated luciferase reporter. Cells were seeded in 96-well plates (Greiner Bio-One) at a density of 1×10^4 cells per well. p53 transcriptional activity was imaged using an IVIS imaging system for a period of 3-4 hours.
(§2) Cell-based screening of p53 transcriptional activity for small molecule CB002 was accomplished using noninvasive bioluminescence imaging in human colorectal cancer cell lines SW480, DLD-1, DLD-1 p73^−/−, HCT116, and HCT116 p53^−/−. These cell lines stably express a p53 reporter, PG13-luc. Cells were seeded in opaque 96-well culture at a density of 5×10^4 cells/well. The cells were treated with CB002 at ranging doses with DMSO controls. Bioluminescence in cells was imaged for p53 transcriptional activity at 2 hours and 24 hours using IVIS imaging system (Xenogen).
(§3) In order to identify small molecules that could restore the p53 signaling pathway, 50,000 small molecules from the Chembridge Library were screened using a firefly luciferase human p53 reporter assay system. SW480 colorectal cancer cells that stably express the human p53 reporter were treated with compounds at various concentrations from 0-100 μM for 2 and 24 hours. […] To further validate the effects of CB002, the screening was expanded by testing effects on p53-dependent reporter activity in DLD-1, wild-type HCT116, and p53-null colorectal cancer HCT116 cell lines. […] Referring to FIG. 1, representative images of luciferase-based p53-reporter activity assays are shown at 3 hours (Panel A). Quantification of the luciferase-based p53-reporter activity assays in three different cell lines incubated from 3-24 hours with CB002 are shown (Panels B-D). p53-reporter activity assays are shown at 2 hours for HCT116 p53-null cells (Panel E).

In assay [4] the test system is p53 reporter (PG13-luc) in HCT116 p53-null cells. Description: luciferase-based p53-reporter activity assay. The assay is classed as cell-based, human. As to conditions: 3 and 24 hours. As to the method:
as §1, §2, §3

For assay [5], the system named is p53 reporter (PG13-luc) in wild-type HCT116 cells. Briefly: luciferase-based p53-reporter activity assay. It counts as cell-based, human. As to conditions: 3 and 24 hours. As to the method:
as §1, §2, §3

pIC50: −log10 of the molar value.

With `Cn1c(=O)c2[nH]c(Nc3ccccc3)nc2n(C)c1=O` [CB002, 8-anilino-1,3-dimethyl-3,7-dihydro-1H-purine-2,6-dione], in assay [1] (versus SW480, DLD-1, HCT116 and HCT116 p53-null), the “IC50 in Wi38 cells compared with colorectal cancer cells” value is given as “much higher”. The compound also had a pIC50 in assay [1] (Homo sapiens, WI-38, WI38 (normal), GraphPad) of 3.19. Besides, the “stability of mutant p53” value in assay [2] is “decreased the stability of mutant p53”. The p53 reporter activity entry in assay [3], in assay [4] and in assay [5] was “induced in a dose-dependent manner” throughout.
